Inhibition data for 29 molecules are collected here from ChEMBL document CHEMBL2385072, “Development of oleanane-type triterpenes as a new class of HCV entry inhibitors” (J Med Chem, 2013).

Common to all, as to settings: HEK-293T
Test [1] relates to Hepatitis C virus. The experiment in a line: Antiviral activity against pseudo HCV infected in human 293T cells assessed as inhibition of HCV pseudo particles entry at 10 uM after 72 hrs by luciferase reporter gene assay. In kind it is functional, Hepacivirus hominis. On the technique in general: A reporter such as luciferase makes a cellular process visible.
Test [2] has as its system Hepatitis C virus. The experiment in a line: Antiviral activity against pseudo HCV infected in human 293T cells assessed as inhibition of HCV pseudo particles entry at 5 uM after 72 hrs by luciferase reporter gene assay. The class given is functional, Hepacivirus hominis.
Test [3] relates to Hepatitis C virus. Briefly: Antiviral activity against pseudo HCV infected in human 293T cells assessed as inhibition of HCV pseudo particles entry at 1 uM after 72 hrs by luciferase reporter gene assay. In kind it is functional, Hepacivirus hominis.
In test [4] the test system is Vesicular stomatitis virus. The experiment in a line: Antiviral activity against pseudo VSV infected in human 293T cells assessed as inhibition of vesicular stromatis G protein pseudo particles entry at 5 uM after 72 hrs by luciferase reporter gene assay. In kind it is functional.
Test [5] concerns Vesicular stomatitis virus. The experiment in a line: Antiviral activity against pseudo VSV infected in human 293T cells assessed as inhibition of vesicular stromatis G protein pseudo particles entry at 1 uM after 72 hrs by luciferase reporter gene assay. In kind it is functional.

Take `CC1(C(=O)O)CC[C@]2(C)CC[C@]3(C)C(=CC(=O)[C@@H]4[C@@]5(C)CC[C@H](O)C(C)(C)[C@@H]5CC[C@]43C)[C@@H]2C1` (single isomer, unassigned) [ENOXOLONE]: the inhibition at 10 µM in the test on Hepatitis C virus [1] came to 5%.

For the molecule `CC1(C)CC[C@]2(C(=O)O)CC[C@]3(C)[C@H](C(O)C[C@@H]4[C@@]5(C)CC[C@H](O)C(C)(C)[C@@H]5CC[C@]43C)[C@@H]2C1` (some centres not stated), in the test on Hepatitis C virus [1], the inhibition at 10 µM was 60%.

In the case of `CC1(C)CC[C@]2(C(=O)O)CC[C@]3(C)C(=CC[C@@H]4[C@@]5(C)CC[C@H](O)C(C)(C)[C@@H]5[C@@H](O)C[C@]43C)[C@@H]2C1`, the inhibition at 10 µM with Hepatitis C virus [1] worked out at 0%.

Consider `CC1(C)CC[C@]2(C(=O)NCCCC[C@H](N)C(=O)O)CC[C@]3(C)C(=CC[C@@H]4[C@@]5(C)CC[C@H](O)C(C)(C)[C@@H]5CC[C@]43C)[C@@H]2C1`, for which the inhibition at 10 µM in the test with Hepatitis C virus [1] came to 60%.

In the case of `C=C(C)[C@@H]1CC[C@]2(C(=O)O)CC[C@]3(C)[C@H](CC[C@@H]4[C@@]5(C)CC[C@H](O)C(C)(C)[C@@H]5CC[C@]43C)[C@@H]12` [BETULINIC ACID], the inhibition at 10 µM in the test on Hepatitis C virus [1] is 75%.

As to `C[C@H]1[C@H](C)CC[C@]2(C(=O)O)CC[C@]3(C)C(=CC[C@@H]4[C@@]5(C)CC[C@H](O)C(C)(C)[C@@H]5CC[C@]43C)[C@H]12` [URSOLIC ACID], the inhibition at 10 µM with Hepatitis C virus [1] is 30%.

`CC1(C)C[C@H]2C3=CC[C@@H]4[C@@]5(C)CC[C@H](O)C(C)(C)[C@@H]5CC[C@@]4(C)[C@]3(C)C[C@@H](O)[C@@]2(C(=O)O)C[C@@H]1O`: the inhibition at 10 µM in the test on Hepatitis C virus [1] was 15%.

Turning to `COC(=O)[C@]12CCC(C)(C)C[C@H]1C1=CC[C@@H]3[C@@]4(C)CC[C@H](O)C(C)(C)[C@@H]4CC[C@@]3(C)[C@]1(C)CC2` [METHYL OLEANOLATE], the inhibition at 10 µM with Hepatitis C virus [1] was 60%.

For the molecule `CC1(C)CC[C@]2(C(=O)O)[C@H](O)C[C@]3(C)C(=CC[C@@H]4[C@@]5(C)CC[C@H](O)[C@@](C)(C=O)[C@@H]5CC[C@]43C)[C@@H]2C1` [QUILLAIC ACID], the inhibition at 10 µM in the test with Hepatitis C virus [1] turned out to be 0%.

Turning to `CC1(C)CC[C@]2(C(=O)O)CC[C@]3(C)C(=CC[C@@H]4[C@@]5(C)C[C@@H](O)[C@H](O)C(C)(C)[C@@H]5CC[C@]43C)[C@@H]2C1` [MASLINIC ACID], the inhibition at 10 µM with Hepatitis C virus [1] was found to be 0%.

On to `CC1(C)CC[C@]2(C(=O)O)CC[C@]3(C)C(=CC[C@@H]4[C@@]5(C)CC[C@H](O)[C@@](C)(CO)[C@@H]5CC[C@]43C)[C@@H]2C1` [HEDERAGENIN], for which the inhibition at 10 µM in the test on Hepatitis C virus [1] is 10%.

Consider `CC1(C)CC[C@]2(C(=O)O)CC[C@]3(C)C(=CC[C@@H]4[C@@]5(C)CC[C@H](OC6O[C@H](CO)[C@@H](O)[C@H](O)[C@H]6O)C(C)(C)[C@@H]5CC[C@]43C)[C@@H]2C1` (some centres not stated), for which the inhibition at 10 µM in the test with Hepatitis C virus [1] was determined as 0%.

Regarding `CC1(C)CC[C@]2(C(=O)O)CC[C@]3(C)C(=CC[C@@H]4[C@@]5(C)CCC(=O)C(C)(C)[C@@H]5CC[C@]43C)[C@@H]2C1` [OLEANONIC ACID], in the test with Hepatitis C virus [1], the inhibition at 10 µM was 0%.

Turning to `CC(=O)OC[C@H]1O[C@@H](n2cc(CNC(=O)[C@]34CCC(C)(C)C[C@H]3C3=CC[C@@H]5[C@@]6(C)CC[C@H](O)C(C)(C)[C@@H]6CC[C@@]5(C)[C@]3(C)C[C@H]4O)nn2)[C@H](OC(C)=O)[C@@H](OC(C)=O)[C@@H]1O[C@H]1O[C@H](COC(C)=O)[C@@H](OC(C)=O)[C@H](OC(C)=O)[C@H]1OC(C)=O`, the results for the inhibition at 5 µM (with Hepatitis C virus [2]; in test [4]) were 79.7% and 28.9%, respectively. The inhibition at 1 µM turned out to be 56.4% in the test on Hepatitis C virus [3] and 13.2% in test [5].

Take `CC1(C)CC[C@]2(C(=O)NCc3cn([C@@H]4O[C@H](CO)[C@@H](O)[C@H](O)[C@@H]4O)nn3)[C@H](O)C[C@]3(C)C(=CC[C@@H]4[C@@]5(C)CC[C@H](O)C(C)(C)[C@@H]5CC[C@]43C)[C@@H]2C1`: the inhibition at 5 µM with Hepatitis C virus [2] was determined as 25%; in test [4], 19.5%. For the same molecule, the inhibition at 1 µM in the test on Hepatitis C virus [3] stood at 17.5%; in test [5], 17.9%.

As to `CC1(C)CC[C@]2(C(=O)NCc3cn([C@@H]4O[C@H](CO)[C@@H](O[C@H]5O[C@H](CO)[C@@H](O[C@H]6O[C@H](CO)[C@@H](O)[C@H](O)[C@H]6O)[C@H](O)[C@H]5O)[C@H](O)[C@H]4O)nn3)[C@H](O)C[C@]3(C)C(=CC[C@@H]4[C@@]5(C)CC[C@H](O)C(C)(C)[C@@H]5CC[C@]43C)[C@@H]2C1`, the inhibition at 5 µM with Hepatitis C virus [2] was found to be 39%; in test [4], 27.4%. The results for the inhibition at 1 µM (in the test on Hepatitis C virus [3]; in test [5]) were 12.8% and 19.7%, respectively.

On to `CC(=O)O[C@@H]1[C@@H](OC(C)=O)[C@H](OC(C)=O)CO[C@H]1n1cc(CNC(=O)[C@]23CCC(C)(C)C[C@H]2C2=CC[C@@H]4[C@@]5(C)CC[C@H](O)C(C)(C)[C@@H]5CC[C@@]4(C)[C@]2(C)C[C@H]3O)nn1`, for which the inhibition at 5 µM is 87.3% in the test with Hepatitis C virus [2] and 47.7% in test [4]. In addition, the inhibition at 1 µM amounted to 35.9% in the test with Hepatitis C virus [3] and 39.8% in test [5].

In the case of `CC1(C)CC[C@]2(C(=O)NCc3cn([C@@H]4O[C@H](CO)[C@H](O)[C@H](O)[C@H]4O)nn3)[C@H](O)C[C@]3(C)C(=CC[C@@H]4[C@@]5(C)CC[C@H](O)C(C)(C)[C@@H]5CC[C@]43C)[C@@H]2C1`, the inhibition at 5 µM with Hepatitis C virus [2] was 36.3%; in test [4], 25.3%. In addition, the inhibition at 1 µM in the test on Hepatitis C virus [3] was 16.6%; in test [5], 11.5%.

Turning to `C[C@H]1O[C@@H](n2cc(CNC(=O)[C@]34CCC(C)(C)C[C@H]3C3=CC[C@@H]5[C@@]6(C)CC[C@H](O)C(C)(C)[C@@H]6CC[C@@]5(C)[C@]3(C)C[C@H]4O)nn2)[C@@H](O)[C@@H](O)[C@@H]1O`, the inhibition at 5 µM is 67% in the test on Hepatitis C virus [2] and 13.9% in test [4]. Further, the results for the inhibition at 1 µM (in the test on Hepatitis C virus [3]; in test [5]) were 32% and 7.7%, respectively.

As for `CC(=O)O[C@@H]1[C@H](OC(C)=O)[C@H](n2cc(CNC(=O)[C@]34CCC(C)(C)C[C@H]3C3=CC[C@@H]5[C@@]6(C)CC[C@H](O)C(C)(C)[C@@H]6CC[C@@]5(C)[C@]3(C)C[C@H]4O)nn2)OC[C@H]1OC(C)=O`, the inhibition at 5 µM was 65.8% in the test with Hepatitis C virus [2] and 32.2% in test [4]. The inhibition at 1 µM in the test with Hepatitis C virus [3] was determined as 21.8%; in test [5], 29.3%.

As to `CC1(C)CC[C@]2(C(=O)NCc3cn([C@@H]4OC[C@@H](O)[C@H](O)[C@H]4O)nn3)[C@H](O)C[C@]3(C)C(=CC[C@@H]4[C@@]5(C)CC[C@H](O)C(C)(C)[C@@H]5CC[C@]43C)[C@@H]2C1`, the inhibition at 5 µM turned out to be 27.8% in the test on Hepatitis C virus [2] and 27% in test [4]. Further, the inhibition at 1 µM in the test with Hepatitis C virus [3] amounted to 14.8%; in test [5], 34.4%.

As for `CC1(C)CC[C@]2(C(=O)O)[C@H](OCc3ccccc3)C[C@]3(C)C(=CC[C@@H]4[C@@]5(C)CC[C@H](OCc6ccccc6)C(C)(C)[C@@H]5CC[C@]43C)[C@@H]2C1`, the inhibition at 5 µM in the test on Hepatitis C virus [2] is 28.2%; in test [4], 30.6%. The inhibition at 1 µM worked out at 5.5% with Hepatitis C virus [3] and 28.8% in test [5].

Take `COC(=O)[C@]12CCC(C)(C)C[C@H]1C1=CC[C@@H]3[C@@]4(C)CC[C@H](OCc5ccccc5)C(C)(C)[C@@H]4CC[C@@]3(C)[C@]1(C)C[C@H]2O`: the inhibition at 5 µM in the test on Hepatitis C virus [2] was determined as 5.2%; in test [4], 25%. Besides, the inhibition at 1 µM in the test on Hepatitis C virus [3] came to 10.5%; in test [5] it was 12.6%.

As for `CC(=O)OC[C@H]1O[C@@H](OC(=O)[C@]23CCC(C)(C)C[C@H]2C2=CC[C@@H]4[C@@]5(C)CC[C@H](O)C(C)(C)[C@@H]5CC[C@@]4(C)[C@]2(C)C[C@H]3O)[C@H](OC(C)=O)[C@@H](OC(C)=O)[C@H]1OC(C)=O`, the inhibition at 5 µM in the test on Hepatitis C virus [2] was determined as 81.6%; in test [4], 30.7%. For the same molecule, the inhibition at 1 µM with Hepatitis C virus [3] was found to be 43.4%; in test [5], 29.3%.

With `COC(=O)[C@]12CCC(C)(C)C[C@H]1C1=CC[C@@H]3[C@@]4(C)CC[C@H](O)C(C)(C)[C@@H]4CC[C@@]3(C)[C@]1(C)C[C@H]2OC`, the results for the inhibition at 5 µM (with Hepatitis C virus [2]; in test [4]) were 33.7% and 9.9%, respectively. Besides, the inhibition at 1 µM is 17.5% with Hepatitis C virus [3] and 7.3% in test [5].

As to `CC1(C)CC[C@]2(C(=O)O)[C@H](OS(=O)(=O)O)C[C@]3(C)C(=CC[C@@H]4[C@@]5(C)CC[C@H](O)C(C)(C)[C@@H]5CC[C@]43C)[C@@H]2C1`, the inhibition at 5 µM is -2.7% in the test with Hepatitis C virus [2] and 34.7% in test [4]. Also, the inhibition at 1 µM with Hepatitis C virus [3] is 1%; in test [5] it was 38.5%.

Consider `CC1(C)CC[C@]2(C(=O)NCc3cn(CCNC(=O)CCCC[C@@H]4SC[C@@H]5NC(=O)N[C@@H]54)nn3)[C@H](O)C[C@]3(C)C(=CC[C@@H]4[C@@]5(C)CC[C@H](O)C(C)(C)[C@@H]5CC[C@]43C)[C@@H]2C1`, for which the inhibition at 5 µM in the test on Hepatitis C virus [2] is 76.7%; in test [4] it was 12%. Besides, the inhibition at 1 µM in the test with Hepatitis C virus [3] came to 34.2%; in test [5] it was 10.3%.

On to `CC1(C)CC[C@]2(C(=O)O[C@@H]3OC[C@@H](O)[C@@H](O)[C@@H]3O)[C@H](O)C[C@]3(C)C(=CC[C@@H]4[C@@]5(C)CC[C@H](O)C(C)(C)[C@@H]5CC[C@]43C)[C@@H]2C1`, for which the inhibition at 5 µM was found to be 54.6% with Hepatitis C virus [2] and 5.8% in test [4]. Also, the inhibition at 1 µM in the test with Hepatitis C virus [3] came out at 34.7%; in test [5] it was 15.6%.

Regarding `COC(=O)[C@]12CCC(C)(C)C[C@H]1C1=CC[C@@H]3[C@@]4(C)CC[C@H](OC)C(C)(C)[C@@H]4CC[C@@]3(C)[C@]1(C)C[C@H]2OC`, the inhibition at 5 µM was 7.9% in the test with Hepatitis C virus [2] and 14.2% in test [4]. Also, the inhibition at 1 µM in the test with Hepatitis C virus [3] worked out at 1.7%; in test [5], 8.5%.

As usually defined, the inhibition is the relative decrease from the control value, in per cent.
